Assay results taken from patent publication US20130158075A1, “HETEROCYCLIC COMPOUNDS AS DGAT1 INHIBITORS” (PIRAMAL ENTERPRISES LIMITED, priority 2010, published 2013).
Where a name gives a salt, the structure may show the parent alone.

target: T1, hDGAT1 (Homo sapiens, UniProt O75907); experiment: In-vitro DGAT1 assay with hDGAT1 microsomes from Sf9 cells (14C oleoyl CoA, scintillation counting); assay type: biochemical; details: at 1 μM
T1 construct: made in house; host or cells: Sf9 insect cells (baculovirus); microsomal fraction
T1 sequence (O75907 1-488): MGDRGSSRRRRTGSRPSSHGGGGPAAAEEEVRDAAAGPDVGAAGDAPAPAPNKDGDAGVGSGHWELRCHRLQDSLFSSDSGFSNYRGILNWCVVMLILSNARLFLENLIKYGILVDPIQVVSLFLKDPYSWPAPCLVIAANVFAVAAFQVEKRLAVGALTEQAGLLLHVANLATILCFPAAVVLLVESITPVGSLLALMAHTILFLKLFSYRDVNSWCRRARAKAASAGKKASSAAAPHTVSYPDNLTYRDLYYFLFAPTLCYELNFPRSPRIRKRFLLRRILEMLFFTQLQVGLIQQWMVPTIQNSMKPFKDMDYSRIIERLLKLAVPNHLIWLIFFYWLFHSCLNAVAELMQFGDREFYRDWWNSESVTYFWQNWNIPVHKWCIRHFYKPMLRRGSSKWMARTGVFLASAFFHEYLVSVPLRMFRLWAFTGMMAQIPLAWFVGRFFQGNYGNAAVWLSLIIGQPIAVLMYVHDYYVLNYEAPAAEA
Summary of the method: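 Microsomes from Sf9 cells infected with hDGAT1 baculovirus (MOI 5, harvested ~66-72 h) were incubated with [14C]oleoyl-CoA and 1,2-dioleoyl-sn-glycerol at 37 °C for 10 min, in duplicate. After alkaline ethanol stop, triglycerides were heptane-extracted and counted by liquid scintillation; percent inhibition was plotted against compound concentration (nM).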

In the case of `CC(C)(CCc1ncc(-c2ccc(NC(=O)Nc3cc(F)cc(F)c3)cc2)s1)C(=O)[O-].[Na+]` [Example 235A, Sodium salt of 4-(5-(4-(3-(3,5-difluorophenyl)ureido)phenyl)thiazol-2-yl)-2,2-dimethylbutanoate], the “Percentage inhibition of hDGAT1” value is reported as “++ (>50 % Inhibition)”.
In the case of `CC(C)(CCc1ncc(-c2ccc(NC(=O)Nc3cc(F)c(F)cc3F)cc2)s1)C(=O)[O-].[Na+]` [Example 237A, Sodium salt of 2,2-dimethyl-4-(5-(4-(3-(2,4,5-trifluorophenyl)ureido)phenyl)thiazol-2-yl)butanoate], the “Percentage inhibition of hDGAT1” value is reported as “++ (>50 % Inhibition)”.
`CC(C)(CCc1ncc(-c2ccc(NC(=O)Nc3cc(F)c(F)c(F)c3)cc2)s1)C(=O)[O-].[Na+]` [Example 255A, Sodium salt of 2,2-dimethyl-4-(5-(4-(3-(3,4,5-trifluorophenyl)ureido)phenyl)thiazol-2-yl)butanoate] was tested, and the “Percentage inhibition of hDGAT1” value was “++ (>50 % Inhibition)”.
For `O=C(O)CCCc1nnc(-c2ccc(NC(=O)c3ccc(-c4ccccc4)cc3)cc2)s1` [Example 290, 4-(5-(4-([1,1′-Biphenyl]-4-ylcarboxamido)phenyl)-1,3,4-thiadiazol-2-yl)butanoic acid], the “Percentage inhibition of hDGAT1” value was “+ (20-50% Inhibition)”.

same assay, conditions: read-out: Percentage inhibition of hDGAT1

`CC(C)(CCc1ncc(-c2ccc(NC(=O)Nc3cc(F)c(F)cc3F)cc2)s1)C(=O)O` [Example 237, 2,2-Dimethyl-4-(5-(4-(3-(2,4,5-trifluorophenyl)ureido)phenyl)thiazol-2-yl)butanoic acid] and `CC(C)(CCc1ncc(-c2ccc(NC(=O)Nc3cc(F)c(F)c(F)c3)cc2)s1)C(=O)O` [Example 255, 2,2-dimethyl-4-(5-(4-(3-(3,4,5-trifluorophenyl)ureido)phenyl)thiazol-2-yl)butanoic acid] cannot be ordered by inhibition at 1 µM: greater than 50% for the first, greater than 50% for the second.

`CC(C)(CCc1ncc(-c2ccc(NC(=O)N3CCCCC3)cc2)s1)C(=O)O` [Example 239, 2,2-Dimethyl-4-(5-(4-(piperidine-1-carboxamido)phenyl)thiazol-2-yl)butanoic acid] and `CC(C)(CCc1ncc(-c2ccc(NC(=O)N3CCOCC3)cc2)s1)C(=O)O` [Example 241, 2,2-Dimethyl-4-(5-(4-(morpholine-4-carboxamido)phenyl)thiazol-2-yl)butanoic acid] fall in the same range of inhibition at 1 µM: 20 to 50% for the first, 20 to 50% for the second.

`CN1CCN(C(=O)Nc2ccc(-c3cnc(CCC(C)(C)C(=O)O)s3)cc2)CC1` [Example 243, 2,2-Dimethyl-4-(5-(4-(4-methylpiperazine-1-carboxamido)phenyl)thiazol-2-yl)butanoic acid hydrochloride] and `CC(C)(CCc1ncc(-c2ccc(NC(=O)N3CCC(F)(F)CC3)cc2)s1)C(=O)O` [Example 261, 4-(5-(4-(4,4-Difluoropiperidine-1-carboxamido)phenyl)thiazol-2-yl)-2,2-dimethyl butanoic acid] fall in the same range of inhibition at 1 µM: 20 to 50% for the first, 20 to 50% for the second.

`CC(C)(CCc1ncc(-c2ccc(NC(=O)Nc3ccc4c(c3)OCCO4)cc2)s1)C(=O)O` [Example 245, 4-(5-(4-(3-(2,3-Dihydrobenzo[b][1,4]dioxin-6-yl)ureido)phenyl)thiazol-2-yl)-2,2-dimethylbutanoic acid] and `CC(C)(CCc1ncc(-c2ccc(NC(=O)NC3Cc4ccccc4C3)cc2)s1)C(=O)O` [Example 251, 4-(5-(4-(3-(2,3-Dihydro-1H-inden-2-yl)ureido)phenyl)thiazol-2-yl)-2,2-dimethyl butanoic acid] cannot be ordered by inhibition at 1 µM: greater than 50% for the first, greater than 50% for the second.

`CC(C)(CCc1ncc(-c2ccc(NC(=O)Nc3nnn[nH]3)cc2)s1)C(=O)O` [Example 247, 4-(5-(4-(3-(1H-tetrazol-5-yl)ureido)phenyl)thiazol-2-yl)-2,2-dimethylbutanoic acid] and `COCCNC(=O)Nc1ccc(-c2cnc(CCC(C)(C)C(=O)O)s2)cc1` [Example 249, 4-(5-(4-(3-(2-methoxyethyl)ureido)phenyl)thiazol-2-yl)-2,2-dimethylbutanoic acid] fall in the same range of inhibition at 1 µM: 20 to 50% for the first, 20 to 50% for the second.

First: CC(C)(CCc1ncc(-c2ccc(NC(=O)NCCN3CCCCC3)cc2)s1)C(=O)O [Example 257, 2,2-Dimethyl-4-(5-(4-(3-(2-(piperidin-1-yl)ethyl)ureido)phenyl)thiazol-2-yl)butanoic acid]
Second: CC(C)(CCc1ncc(-c2ccc(NC(=O)NCc3ccccc3)cc2)s1)C(=O)O [Example 259, 4-(5-(4-(3-Benzylureido)phenyl)thiazol-2-yl)-2,2-dimethylbutanoic acid]
The inhibition at 1 µM of the first is lower: 20 to 50% for the first, greater than 50% for the second.

Compared with `CC(C)(CCc1ncc(-c2ccc(NC(=O)N3CCC(c4ccccc4)CC3)cc2)s1)C(=O)O` [Example 263, 2,2-Dimethyl-4-(5-(4-(4-phenylpiperidine-1-carboxamido)phenyl)thiazol-2-yl)butanoic acid], `CC(C)(CCc1ncc(-c2ccc(NC(=O)NCc3ccc(C#N)cc3)cc2)s1)C(=O)O` [Example 265, 4-(5-(4-(3-(4-Cyanobenzyl)ureido)phenyl)thiazol-2-yl)-2,2-dimethylbutanoic acid] is lower in inhibition at 1 µM: greater than 50% for the first, 20 to 50% for the second.

First: O=C(O)CCCc1nnc(-c2ccc(NC(=O)Nc3cccc(C(F)(F)F)c3)cc2)s1 [Example 278, 4-(5-(4-(3-(3-(Trifluoromethyl)phenyl)ureido)phenyl)-1,3,4-thiadiazol-2-yl)butanoic acid]
Second: O=C(O)CCCc1nnc(-c2ccc(NC(=O)Nc3cccc(C(F)(F)F)c3)cc2)o1 [Example 302, 4-(5-(4-(3-(3-(Trifluoromethyl)phenyl)ureido)phenyl)-1,3,4-oxadiazol-2-yl)butanoic acid]
The inhibition at 1 µM of the first is higher: greater than 50% for the first, 20 to 50% for the second.

Compared with `O=C(O)CCCc1nnc(-c2ccc(NC(=O)Nc3ccccc3Cl)cc2)s1` [Example 280, 4-(5-(4-(3-(2-Chlorophenyl)ureido)phenyl)-1,3,4-thiadiazol-2-yl)butanoic acid], `O=C(O)CCCc1nnc(-c2ccc(NC(=O)Nc3ccccc3Cl)cc2)o1` [Example 296, 4-(5-(4-(3-(2-Chlorophenyl)ureido)phenyl)-1,3,4-oxadiazol-2-yl)butanoic acid] is lower in inhibition at 1 µM: greater than 50% for the first, 20 to 50% for the second.

`Cc1ccc(NC(=O)Nc2ccc(-c3nnc(CCCC(=O)O)s3)cc2)cc1` [Example 282, 4-(5-(4-(3-(p-Tolyl)ureido)phenyl)-1,3,4-thiadiazol-2-yl)butanoic acid] and `O=C(O)CCCc1nnc(-c2ccc(NC(=O)Nc3ccc(F)cc3F)cc2)s1` [Example 284, 4-(5-(4-(3-(2,4-Difluorophenyl)ureido)phenyl)-1,3,4-thiadiazol-2-yl)butanoic acid] cannot be ordered by inhibition at 1 µM: greater than 50% for the first, greater than 50% for the second.

`O=C(O)CCCc1nnc(-c2ccc(NC(=O)Nc3ccc(Cl)cc3Oc3ccccc3)cc2)s1` [Example 286, 4-(5-(4-(3-(4-Chloro-2-phenoxyphenyl)ureido)phenyl)-1,3,4-thiadiazol-2-yl)butanoic acid] and `O=C(O)CCCc1nc(-c2ccc(NC(=O)Nc3ccc(Cl)cc3Oc3ccccc3)cc2)no1` [Example 322, 4-(3-(4-(3-(4-Chloro-2-phenoxyphenyl)ureido)phenyl)-1,2,4-oxadiazol-5-yl) butanoic acid] cannot be ordered by inhibition at 1 µM: greater than 50% for the first, greater than 50% for the second.

`CC(C)(C)c1ccc(C(=O)Nc2ccc(-c3nnc(CCCC(=O)O)s3)cc2)cc1` [Example 288, 4-(5-(4-(4-(tert-Butyl)benzamido)phenyl)-1,3,4-thiadiazol-2-yl)butanoic acid] and `O=C(O)CCCc1nnc(-c2ccc(NC(=O)c3ccc(OC(F)(F)F)cc3)cc2)s1` [Example 292, 4-(5-(4-(4-(Trifluoromethoxy)benzamido)phenyl)-1,3,4-thiadiazol-2-yl)butanoic acid] fall in the same range of inhibition at 1 µM: 20 to 50% for the first, 20 to 50% for the second.

First: O=C(O)CCCc1nnc(-c2ccc(NC(=O)Nc3ccc(F)cc3F)cc2)o1 [Example 300, 4-(5-(4-(3-(2,4-Difluorophenyl)ureido)phenyl)-1,3,4-oxadiazol-2-yl)butanoic acid]
Second: O=C(O)CC1CCC(c2ncc(-c3ccc(NC(=O)Nc4cc(F)c(F)cc4F)cc3)s2)CC1 (stereo not shown) [Example 358, 2-(4-(5-(4-(3-(2,4,5-Trifluorophenyl)ureido)phenyl)thiazol-2-yl)cyclohexyl)acetic acid]
The inhibition at 1 µM of the first is lower: 20 to 50% for the first, greater than 50% for the second.

First: O=C(Nc1ccc(-c2ccn(C3CCC(C(=O)O)CC3)n2)cc1)Nc1cccc(C(F)(F)F)c1 (stereo not shown) [Example 315, 4-(3-(4-(3-(3-(Trifluoromethyl)phenyl)ureido)phenyl)-1H-pyrazol-1-yl)cyclohexanecarboxylic acid]
Second: O=C(O)CC1CCC(c2ncc(-c3ccc(NC(=O)Nc4ccccc4Cl)cc3)s2)CC1 (stereo not shown) [Example 346, 2-(4-(5-(4-(3-(2-Chlorophenyl)ureido)phenyl)thiazol-2-yl)cyclohexyl)acetic acid]
The inhibition at 1 µM of the first is lower: 20 to 50% for the first, greater than 50% for the second.

`O=C(O)CC1CCC(c2ncc(-c3ccc(NC(=O)Nc4ccccc4F)cc3)s2)CC1` (stereo not shown) [Example 348, 2-(4-(5-(4-(3-(2-Fluorophenyl)ureido)phenyl)thiazol-2-yl)cyclohexyl)acetic acid] and `O=C(O)CC1CCC(c2ncc(-c3ccc(NC(=O)Nc4cc(F)cc(F)c4)cc3)s2)CC1` (stereo not shown) [Example 356, 2-(4-(5-(4-(3-(3,5-Difluorophenyl)ureido)phenyl)thiazol-2-yl)cyclohexyl)acetic acid] cannot be ordered by inhibition at 1 µM: greater than 50% for the first, greater than 50% for the second.
